These compounds were tested against T1, human acetyl-CoA carboxylase 2 (ACC2) (Homo sapiens, UniProt O00763) (assay: Acetyl-CoA carboxylase enzyme assay (malonyl-CoA formation by LC/MS/MS)). Details: recombinant human ACC2 (aa 144-2458); read-out: IC50 ACC2.
T1 construct: The cDNA encoding amino acids 144 to 2458 of human acetyl-CoA carboxylase 2; made in house; host or cells: Sf9 insect cells (baculovirus, pFastBac1)
T1 sequence (O00763 144-2458): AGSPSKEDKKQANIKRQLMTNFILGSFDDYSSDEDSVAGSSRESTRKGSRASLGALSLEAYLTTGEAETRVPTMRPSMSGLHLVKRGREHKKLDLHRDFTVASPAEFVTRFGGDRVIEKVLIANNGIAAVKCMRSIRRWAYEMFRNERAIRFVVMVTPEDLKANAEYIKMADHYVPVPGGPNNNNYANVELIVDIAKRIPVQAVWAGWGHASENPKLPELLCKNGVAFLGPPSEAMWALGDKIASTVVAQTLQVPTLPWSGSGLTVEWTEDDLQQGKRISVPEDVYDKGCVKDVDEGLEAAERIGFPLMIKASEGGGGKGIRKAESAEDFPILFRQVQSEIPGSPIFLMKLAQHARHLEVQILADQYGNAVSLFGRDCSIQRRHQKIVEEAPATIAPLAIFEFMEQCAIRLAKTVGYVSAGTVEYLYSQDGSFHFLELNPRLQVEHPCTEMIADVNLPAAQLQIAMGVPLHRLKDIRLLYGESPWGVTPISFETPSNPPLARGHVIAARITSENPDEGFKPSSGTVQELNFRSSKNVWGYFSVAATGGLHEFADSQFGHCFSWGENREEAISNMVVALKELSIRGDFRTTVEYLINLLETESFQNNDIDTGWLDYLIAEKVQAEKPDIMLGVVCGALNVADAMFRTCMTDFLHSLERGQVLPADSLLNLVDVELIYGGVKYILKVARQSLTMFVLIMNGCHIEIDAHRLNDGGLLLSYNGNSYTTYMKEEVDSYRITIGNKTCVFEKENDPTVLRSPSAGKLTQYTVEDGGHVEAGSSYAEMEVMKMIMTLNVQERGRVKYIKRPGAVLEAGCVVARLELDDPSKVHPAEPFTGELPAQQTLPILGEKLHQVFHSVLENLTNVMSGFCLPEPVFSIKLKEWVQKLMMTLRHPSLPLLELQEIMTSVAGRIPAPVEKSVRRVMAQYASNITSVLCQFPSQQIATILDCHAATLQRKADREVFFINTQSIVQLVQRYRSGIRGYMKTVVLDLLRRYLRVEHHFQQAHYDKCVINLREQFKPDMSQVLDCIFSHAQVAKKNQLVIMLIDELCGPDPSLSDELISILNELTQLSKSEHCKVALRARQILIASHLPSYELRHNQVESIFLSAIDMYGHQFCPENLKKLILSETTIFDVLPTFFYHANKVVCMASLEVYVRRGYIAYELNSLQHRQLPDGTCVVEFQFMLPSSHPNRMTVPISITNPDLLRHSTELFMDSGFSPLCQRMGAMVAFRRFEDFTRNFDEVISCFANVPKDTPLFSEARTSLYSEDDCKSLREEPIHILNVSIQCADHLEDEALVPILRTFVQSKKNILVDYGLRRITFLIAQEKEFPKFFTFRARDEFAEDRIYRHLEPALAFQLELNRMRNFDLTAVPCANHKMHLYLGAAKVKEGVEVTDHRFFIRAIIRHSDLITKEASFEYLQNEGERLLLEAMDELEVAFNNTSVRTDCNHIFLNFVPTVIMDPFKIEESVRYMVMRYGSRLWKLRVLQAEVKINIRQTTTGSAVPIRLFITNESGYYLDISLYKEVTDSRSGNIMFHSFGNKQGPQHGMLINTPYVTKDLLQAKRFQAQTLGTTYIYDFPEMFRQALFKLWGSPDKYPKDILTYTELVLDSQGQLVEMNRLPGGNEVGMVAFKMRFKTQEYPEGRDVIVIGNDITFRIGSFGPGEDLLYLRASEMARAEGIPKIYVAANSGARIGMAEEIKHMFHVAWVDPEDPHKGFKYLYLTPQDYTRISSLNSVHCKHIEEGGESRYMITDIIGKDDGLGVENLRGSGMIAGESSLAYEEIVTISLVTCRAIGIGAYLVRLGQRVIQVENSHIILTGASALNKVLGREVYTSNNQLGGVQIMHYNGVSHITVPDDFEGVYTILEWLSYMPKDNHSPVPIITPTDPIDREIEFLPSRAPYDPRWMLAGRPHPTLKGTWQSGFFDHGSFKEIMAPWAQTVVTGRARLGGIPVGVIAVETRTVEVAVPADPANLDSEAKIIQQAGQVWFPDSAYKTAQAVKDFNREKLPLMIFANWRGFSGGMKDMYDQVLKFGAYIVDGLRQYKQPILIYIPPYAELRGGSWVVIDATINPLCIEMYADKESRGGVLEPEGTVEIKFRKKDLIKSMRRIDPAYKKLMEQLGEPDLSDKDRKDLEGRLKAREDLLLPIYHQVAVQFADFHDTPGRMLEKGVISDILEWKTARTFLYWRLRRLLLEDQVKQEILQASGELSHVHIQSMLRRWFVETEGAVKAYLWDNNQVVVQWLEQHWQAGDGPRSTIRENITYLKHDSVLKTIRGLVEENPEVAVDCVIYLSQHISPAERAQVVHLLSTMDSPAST
Format: biochemical
How it was run: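 Malonyl-CoA formation was read by LC/MS/MS MRM against a [13C3]-malonyl-CoA internal standard, after acetic acid quench. The enzyme was baculovirus/Sf9-expressed human ACC2 residues 144–2458, given 15 minutes room-temperature compound preincubation in HEPES pH 7.5 buffer with MgCl2, citrate and DTT. Substrate solution held 50 μM acetyl-CoA, 120 μM ATP and 2 mM KHCO3.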
Work on `Cc1cc(CO)ccc1-c1cc2ccc(S(=O)(=O)N[C@H]3CC[C@H](C(=O)N4CCN(C(=O)OC(C)(C)C)CC4)CC3)cc2[nH]1` [Example 310, tert-butyl 4-((1r,4r)-4-(2-(4-(hydroxymethyl)-2-methylphenyl)-1H-indole-6-sulfonamido)cyclohexanecarbonyl)piperazine-1-carboxylate] yielded an IC50 of 62 nM. `Cc1cc(CO)ccc1-c1cc2ccc(S(=O)(=O)N[C@H]3CC[C@H](C(=O)N4CCOCC4c4ccccc4)CC3)cc2[nH]1` (stereo partly shown) [Example 311, 2-(4-(hydroxymethyl)-2-methylphenyl)-N-((1r,4r)-4-(3-phenylmorpholine-4-carbonyl)cyclohexyl)-1H-indole-6-sulfonamide] was tested, and the IC50 was less than 10 nM. Compound `Cc1cc(CO)ccc1-c1cc2ccc(S(=O)(=O)N[C@H]3CC[C@H](C(=O)N4CCNCC4)CC3)cc2[nH]1` [Example 312, 2-(4-(hydroxymethyl)-2-methylphenyl)-N-((1r,4r)-4-(piperazine-1-carbonyl)cyclohexyl)-1H-indole-6-sulfonamide] has an IC50 of 599 nM. `Cc1cc(CO)ccc1-c1cc2ccc(S(=O)(=O)N[C@H]3CC[C@H](C(=O)N4CCNC[C@@H]4c4ccccc4)CC3)cc2[nH]1` [Example 313, 2-(4-(hydroxymethyl)-2-methylphenyl)-N-((1S,4r)-4-((S)-2-phenylpiperazine-1-carbonyl)cyclohexyl)-1H-indole-6-sulfonamide] gave an IC50 of less than 10 nM. Compound `Cc1cc(CO)ccc1-c1cc2ccc(S(=O)(=O)N[C@H]3CC[C@H](C(=O)N4CCCCC4)CC3)cc2[nH]1` [Example 314, 2-(4-(hydroxymethyl)-2-methylphenyl)-N-((1r,4r)-4-(piperidine-1-carbonyl)cyclohexyl)-1H-indole-6-sulfonamide] has an IC50 of 60 nM. `Cc1cc(CO)ccc1-c1cc2ccc(S(=O)(=O)N[C@H]3CC[C@H](C(=O)N[C@H](C)c4ccc(F)cc4)CC3)cc2n1C` [Example 315, (1r,4R)-N-((R)-1-(4-fluorophenyl)ethyl)-4-(2-(4-(hydroxymethyl)-2-methylphenyl)-1-methyl-1H-indole-6-sulfonamido)cyclohexanecarboxamide] was tested, and the IC50 was 20 nM. In the case of `CC(O)Cc1cc2ccc(S(=O)(=O)N[C@H]3CC[C@H](C(=O)N[C@H](C)c4ccc(F)cc4)CC3)cc2[nH]1` (stereo partly drawn) [Example 316, (1r,4R)-N-((R)-1-(4-fluorophenyl)ethyl)-4-(2-(2-hydroxypropyl)-1H-indole-6-sulfonamido)cyclohexanecarboxamide], the IC50 is reported as 110 nM. In the case of `Cc1cc(CO)ccc1-c1cc2ccc(S(=O)(=O)N[C@H]3CC[C@H](C(=O)N4CCNC(C(F)(F)F)C4)CC3)cc2[nH]1` (stereo partly shown) [Example 317, 2-(4-(hydroxymethyl)-2-methylphenyl)-N-((1r,4r)-4-(3-(trifluoromethyl)piperazine-1-carbonyl)cyclohexyl)-1H-indole-6-sulfonamide], the IC50 is reported as 25 nM. `Cc1cc(CO)ccc1-c1cc2ccc(S(=O)(=O)N[C@H]3CC[C@H](C(=O)N4CCNC(C(F)(F)F)C4)CC3)cc2n1C` (stereo partly shown) [Example 318, 2-(4-(hydroxymethyl)-2-methylphenyl)-1-methyl-N-((1r,4r)-4-(3-(trifluoromethyl)piperazine-1-carbonyl)cyclohexyl)-1H-indole-6-sulfonamide] was tested, and the IC50 was 515 nM. Work on `C[C@@H](NC(=O)[C@H]1CC[C@H](NS(=O)(=O)c2ccc3cc(CCCO)[nH]c3c2)CC1)c1ccc(F)cc1` [Example 319, (1r,4R)-N-((R)-1-(4-fluorophenyl)ethyl)-4-(2-(3-hydroxypropyl)-1H-indole-6-sulfonamido)cyclohexanecarboxamide] yielded an IC50 of 25 nM. In the case of `Cc1ccccc1-c1cc2ccc(S(=O)(=O)N[C@H]3CC[C@H](C(=O)N4CCNC(C(F)(F)F)C4)CC3)cc2[nH]1` (stereo partly shown) [Example 320, 2-o-tolyl-N-((1r,4r)-4-(3-(trifluoromethyl)piperazine-1-carbonyl)cyclohexyl)-1H-indole-6-sulfonamide], the IC50 is reported as 85 nM. For `Cc1ccccc1-c1cc2ccc(S(=O)(=O)N[C@H]3CC[C@H](C(=O)N4CCCC(C(F)(F)F)C4)CC3)cc2[nH]1` (stereo partly shown) [Example 321, 2-o-tolyl-N-((1r,4r)-4-(3-(trifluoromethyl)piperidine-1-carbonyl)cyclohexyl)-1H-indole-6-sulfonamide], the IC50 was 250 nM. With `Cc1ccccc1-c1cc2ccc(S(=O)(=O)N[C@H]3CC[C@H](C(=O)N4CCN(C(=O)OC(C)(C)C)C[C@@H]4c4ccccc4)CC3)cc2[nH]1` [Example 322, (S)-tert-butyl 3-phenyl-4-((1r,4S)-4-(2-o-tolyl-1H-indole-6-sulfonamido)cyclohexanecarbonyl)piperazine-1-carboxylate] the IC50 was less than 10 nM. Compound `O=C([C@H]1CC[C@H](NS(=O)(=O)c2ccc3cc(-c4ccccc4)[nH]c3c2)CC1)N1CCNC(C(F)(F)F)C1` (stereo partly shown) [Example 323, 2-phenyl-N-((1r,4r)-4-(3-(trifluoromethyl)piperazine-1-carbonyl)cyclohexyl)-1H-indole-6-sulfonamide] has an IC50 of 55 nM. With `Cn1c(-c2ccccc2)cc2ccc(S(=O)(=O)N[C@H]3CC[C@H](C(=O)N4CCNC(C(F)(F)F)C4)CC3)cc21` (stereo partly shown) [Example 324, 1-methyl-2-phenyl-N-((1r,4r)-4-(3-(trifluoromethyl)piperazine-1-carbonyl)cyclohexyl)-1H-indole-6-sulfonamide] the IC50 was 40 nM. Compound `Cc1ccccc1-c1cc2ccc(S(=O)(=O)N[C@H]3CC[C@H](C(=O)N4CCNC[C@@H]4c4ccccc4)CC3)cc2[nH]1` [Example 325, N-((1S,4r)-4-((S)-2-phenylpiperazine-1-carbonyl)cyclohexyl)-2-o-tolyl-1H-indole-6-sulfonamide] has an IC50 of less than 10 nM. In the case of `Cc1ccccc1-c1cc2ccc(S(=O)(=O)N[C@H]3CC[C@H](C(=O)N4CCOC[C@@H]4c4ccccc4)CC3)cc2[nH]1` [Example 326, N-((1S,4r)-4-((S)-3-phenylmorpholine-4-carbonyl)cyclohexyl)-2-o-tolyl-1H-indole-6-sulfonamide], the IC50 is reported as 325 nM. `Cc1ccccc1-c1cc2ccc(S(=O)(=O)NC3CCC(C(=O)N4CCOCC4c4ccccc4)CC3)cc2[nH]1` [Example 327, N-((1S,4r)-4-((S)-3-phenylmorpholine-4-carbonyl)cyclohexyl)-2-o-tolyl-1H-indole-6-sulfonamide] showed an IC50 of less than 10 nM. For `CC(C)(C)OC(=O)N1CCN(C(=O)[C@H]2CC[C@H](NS(=O)(=O)c3ccc4cc(-c5ccccc5C(F)(F)F)[nH]c4c3)CC2)[C@@H](c2ccccc2)C1` [Example 328, (S)-tert-butyl 3-phenyl-4-((1r,4S)-4-(2-(2-(trifluoromethyl)phenyl)-1H-indole-6-sulfonamido)cyclohexanecarbonyl)piperazine-1-carboxylate], the IC50 was 55 nM. In the case of `C[C@@H](NC(=O)[C@H]1CC[C@H](NS(=O)(=O)c2ccc3cc(-c4ccccc4C(F)(F)F)[nH]c3c2)CC1)c1ccc(F)cc1` [Example 329, (1r,4R)-N-((R)-1-(4-fluorophenyl)ethyl)-4-(2-(2-(trifluoromethyl)phenyl)-1H-indole-6-sulfonamido)cyclohexanecarboxamide], the IC50 is reported as 120 nM. `O=C([C@H]1CC[C@H](NS(=O)(=O)c2ccc3cc(-c4ccccc4C(F)(F)F)[nH]c3c2)CC1)N1CCCC(C(F)(F)F)C1` (stereo partly shown) [Example 330, 2-(2-(trifluoromethyl)phenyl)-N-((1r,4r)-4-(3-(trifluoromethyl)piperidine-1-carbonyl)cyclohexyl)-1H-indole-6-sulfonamide] gave an IC50 of 3600 nM. For `Cn1c(-c2ccccc2)cc2ccc(S(=O)(=O)N[C@H]3CC[C@H](C(=O)N4CCN[C@H](C(F)(F)F)C4)CC3)cc21` [Example 331, 1-methyl-2-phenyl-N-((1S,4r)-4-((S)-3-(trifluoromethyl)piperazine-1-carbonyl)cyclohexyl)-1H-indole-6-sulfonamide], the IC50 was 25 nM. With `Cn1c(-c2ccccc2)cc2ccc(S(=O)(=O)N[C@H]3CC[C@H](C(=O)N4CCN[C@@H](C(F)(F)F)C4)CC3)cc21` [Example 332, 1-methyl-2-phenyl-N-((1R,4r)-4-((R)-3-(trifluoromethyl)piperazine-1-carbonyl)cyclohexyl)-1H-indole-6-sulfonamide] the IC50 was 25 nM. In the case of `O=C([C@H]1CC[C@H](NS(=O)(=O)c2ccc3cc(-c4ccccc4C(F)(F)F)[nH]c3c2)CC1)N1CCNC[C@@H]1c1ccccc1` [Example 333, N-((1S,4r)-4-((S)-2-phenylpiperazine-1-carbonyl)cyclohexyl)-2-(2-(trifluoromethyl)phenyl)-1H-indole-6-sulfonamide], the IC50 is reported as 65 nM. `O=C(C1CCC(NS(=O)(=O)c2ccc3cc(-c4ccccc4C(F)(F)F)[nH]c3c2)CC1)N1CCNC(C(F)(F)F)C1` (stereo not shown) [Example 334, 2-(2-(trifluoromethyl)phenyl)-N-((1r,4r)-4-(3-(trifluoromethyl)piperazine-1-carbonyl)cyclohexyl)-1H-indole-6-sulfonamide] gave an IC50 of 1420 nM. Compound `Cc1ccccc1-c1cc2ccc(S(=O)(=O)N[C@H]3CC[C@H](C(=O)N4CCCC4c4ccccc4)CC3)cc2[nH]1` (stereo partly shown) [Example 335, N-((1r,4r)-4-(2-phenylpyrrolidine-1-carbonyl)cyclohexyl)-2-o-tolyl-1H-indole-6-sulfonamide] has an IC50 of 25 nM. With `Cn1c(-c2ccc(CO)cc2)cc2ccc(S(=O)(=O)N[C@H]3CC[C@H](C(=O)N4CCOCC4)CC3)cc21` [Example 336, 2-(4-(hydroxymethyl)phenyl)-1-methyl-N-((1r,4r)-4-(morpholine-4-carbonyl)cyclohexyl)-1H-indole-6-sulfonamide] the IC50 was 35 nM. For `Cn1c(-c2ccc(CO)cc2)cc2ccc(S(=O)(=O)N[C@H]3CC[C@H](C(=O)N4CCN[C@H](C(F)(F)F)C4)CC3)cc21` [Example 337, 2-(4-(hydroxymethyl)phenyl)-1-methyl-N-((1S,4r)-4-((S)-3-(trifluoromethyl)piperazine-1-carbonyl)cyclohexyl)-1H-indole-6-sulfonamide], the IC50 was 20 nM.
